Here are results for six molecules from patent publication US20170197938A1, “A QUINOLINE DERIVATIVE FOR THE TREATMENT OF INFLAMMATORY DISEASES AND AIDS” (ABIVAX, priority 2014, published 2017).

The subject of one test is miR-124. Briefly: miR-124 expression in PBMCs treated with screened molecules (RT-qPCR, relative quantification). It is filed as cell-based, human. Conditions: for Fold-change compared to DMSO treated cells, Mean (miR-124 expression): PBMCs of healthy donors, 6 days treatment, quinoline derivative 5 μM, antiretroviral drugs 10 μM, mean of 4 or 5 donors; for effect on miR-124 expression in PBMCs (in words): antiretrovirals in four donors. On the procedure: For that purpose, Peripheral blood mononuclear cells (PBMCs) of several healthy donors have been isolated by centrifugation on a FICOLL™ gradient according to standard protocols.
Briefly, 60-70 mL of buffy-coat are poured in a flask of 175 cm^2, and the volume is adjusted to 300 mL using PBS in order to obtain a dilution of about 5-fold of the buffy cost. 38 mL of diluted Buffy are then added to Falcon™ tubes of 50 mL comprising 12 mL of FICOLL™ (Histopack-1077) at ambient temperature. The preparation is centrifugated for 30 minutes at 515 rcf at ambient temperature. The lymphocyte ring is recovered from the Falcon™ tube with a transfer pipette (Pastette®) and then washed with PBS using centrifugation for 10 minutes at 290 rcf and at ambient temperature until the supernatant becomes clear.
The cells are then resuspended at 37° C. to a density of 1.5×10^6 cells/mL in RPMI Glutamax medium (Life Technologies Ref 61870-010) supplemented with 10% fetal calf serum (FCS) (Thermo Fisher Ref SV30160.03) and without activation. Cells are incubated for 48 hours at 37° C. under 5% CO2.
Six-well plates are used for the screening. Within each well comprising 3.10^6 cell/4 ml RPMI supplemented with 10% fetal calf serum and 40 U/mL IL-2 (Peprotech Ref 200-02) are added screened molecules. 100% DMSO (4 μL) is added to the well and tested as a negative control.
Each tested condition is set up as described here below and the final corresponding volume is adjusted accordingly in the well: • 1) Quinoline derivative in 100% DMSO—(5 μM and final volume 4 μL) • 2) Antiretroviral drugs: Maraviroc, Efavirenz, Darunavir, AZT (10 μM for all—final volume 4 μL).
The wells are incubated for three days at 37° C. under 5% CO2. Medium is changed (Day 3) according to standard protocols. Briefly, plates are centrifugated at 290 rcf for 5 minutes and 3 mL of supernatant is removed. 3 mL of RPMI supplemented with 10% fetal calf serum and 40 U/mL IL-2 is then added with 3 μL of a stock solution of screened molecule at 5 mM in 100% DMSO or 3 μL of 100% DMSO as a negative control.
Cells are recovered within Falcon™ tubes of 15 mL, centrifugated at 290 rcf for 5 minutes, and then washed in 10 mL PBS and further centrifugated at 290 rcf for 5 minutes. Cells are then resuspended in 1 mL PBS and counted.
6×10^6 cells are recovered and centrifugated at 290 rcf for 5 minutes. The cell pellet is lysed in 300 μL of ML lysis buffer from the Macherey Nagel Nucleospin® miRNA extraction kit (Macherey Nagel Ref 740971), and further stored at −20° C.
5 μL of 2×10^8 copies/μL of spike-in control (Ce_miR-39 from QIAGEN®—reference 219610 of SEQ ID No 6) are added for each sample. The miRNA extraction is achieved using the protocol from Macherey Nagel Nucleospin® miRNA extraction kit using an elution volume for RNAs of 50 μL and miRNAs of 30 μL, and further stored at −20° C.
The reverse transcription step is followed for 12 μL of miRNA using the miScript RT II reverse transcription (RT) kit from QIAGEN® using the miScript HiSpec buffer, and further stored at −20° C.
The quantitative PCR step is achieved using the QIAGEN® miScript SYBR® Green PCR kit and miScript Primer Assays according to the manufacturer's protocol.
The reaction is repeated in triplicates in a 384-well plate according to the manufacturer's protocol on a LightCycler® […] Roche Real-Time PCR system. Cycling conditions are also set up according to the manufacturer's protocol:
From a dilution to the 1/10th in H2O for the miR-124 qPCR (Hs'miR-124a) or to the 1/100th for reference/housekeeping gene qPCR (Hs_miR-26a and Hs_miR-191, using miScript Primer Assays (Hs_miR-124a, Hs_miR-26a and Hs_miR-191 or QIAGEN®—references ms00006622, ms00029239 and ms00003682).
The analysis is achieved using relative quantification models without efficiency correction (2^−ΔΔCp) using the average of crossing points (Cp) values from triplicates of miR-124 and the average of the average of triplicates of miR-26a and miR-191. […]
For orientation: Real-time PCR tracks product formation cycle by cycle.

The test system of the next test is HIV-1. Nature of the test: Inhibition of HIV-1 production in infected PBMCs (p24 ELISA). In kind it is cell-based. The following applies: Human immunodeficiency virus 1, PBMC, read-out: Activity (IC50). On the procedure:
Within this framework, the peripheral blood mononuclear cells (PBMCs) of healthy donors are isolated by centrifugation on a FICOLL gradient. The cells are then activated two days to a density of 1.5×10^6 cells/ml in RPMI plutamax medium supplemented with 10% fetal calf serum (FCS), 40 U/ml of IL2 and 5 μg/ml PHA, in an incubator at 37° C., 5% CO2.
A standard experiment using 96 plates to test 30 molecules in triplicates including positive and negative controls, is performed as follows:
PHA/IL2 activated PBMCs are washed with RPMI 10% FCS and resuspended at 1.5×10^6 cells/ml in RPMI glutamax 10% FCS, 40 U/ml I12. The cells are seeded in 96 wells (1.5 10^5 cells/well/100 μl). Viral infection is performed with 1 ng of AdaM/well. 100 μl of tested molecules at concentration of 20 μM are added to each well (10 μM final concentration). Virus production is determined by p24 antigen immunosorbent assays after 3 and 6 days of infection (Kit Innogenetics). Typically PBMCs are prepared from several healthy donors (around 11 different donors). […]
The efficacy of compound of formula (1) and of compound no 1 as disclosed in document WO 2012/080953 is measured by the HIV-specific enzyme-linked immunosorbent assay, p24 ELISA.
Drug efficacy is expressed as percent inhibition of the HIV p24 antigen in this rapid and sensitive assay.
(In general: ELISA stands for enzyme-linked immunosorbent assay.)

As to `Cc1cn([C@H]2C[C@H](N=[N+]=[N-])[C@@H](CO)O2)c(=O)[nH]c1=O` [AZT], in the test with miR-124, the “Fold-change compared to DMSO treated cells, Mean (miR-124 expression)” value (from here on “Fold-change”) turned out to be 0.90 and the “effect on miR-124 expression in PBMCs (in words)” value (from here on “effect on miR-124 expression”) is “none of the known antiretroviral (Maraviroc, Effavirenz, Darunavir or AZT) has any significant effect”.
As usually defined, the IC50 is the concentration at which inhibition is half-maximal. Turning to `FC(F)(F)c1ccnc(Nc2ccc3cc(OCCN4CCOCC4)cc(Cl)c3n2)c1` [Compound of formula (1), 8-chloro-6-(2-morpholinoethoxy)-N-(4-(trifluoromethyl)pyridin-2-yl)quinolin-2-amine], the IC50 in the test on HIV-1 worked out at 0.43 µM. Also, in the test on miR-124, the “Fold-change” value is reported as 32.04 and the “effect on miR-124 expression” value was “up-regulate the expression levels of miR-124”.
As for `FC(F)(F)c1ccnc(Nc2ccc3c(OCCN4CCOCC4)ccc(Cl)c3n2)c1`, the IC50 in the test on HIV-1 was found to be 62.3 µM.
As for `CC(C)CN(C[C@@H](O)[C@H](Cc1ccccc1)NC(=O)O[C@H]1CO[C@H]2OCC[C@H]21)S(=O)(=O)c1ccc(N)cc1` [Darunavir], in the test on miR-124, the “Fold-change” value turned out to be 1.08 and the “effect on miR-124 expression” value is listed as “none of the known antiretroviral (Maraviroc, Effavirenz, Darunavir or AZT) has any significant effect”.
For `O=C1Nc2ccc(Cl)cc2[C@@](C#CC2CC2)(C(F)(F)F)O1` [Effavirenz, Efavirenz], in the test on miR-124, the “Fold-change” value was 0.46 and the “effect on miR-124 expression” value is listed as “none of the known antiretroviral (Maraviroc, Effavirenz, Darunavir or AZT) has any significant effect”.
With Maraviroc, in the test on miR-124, the “Fold-change” value stood at 0.73 and the “effect on miR-124 expression” value is listed as “none of the known antiretroviral (Maraviroc, Effavirenz, Darunavir or AZT) has any significant effect”.
